Counter-ions that a name gives are not always drawn.
Key:
[1] = target: CDK9 (Homo sapiens, UniProt P50750); assay: In-vitro kinase inhibitory activity, CDK9 (selectivity); assay type: biochemical; details: read-out: IC50 (half maximal inhibitory concentration, nM) CDK9
[2] = tested on: human breast cancer MCF-7 cells; assay: Growth inhibition of tumor cells cultured in vitro, CellTiter-Glo, MCF-7; assay type: cell-based; details: Homo sapiens, MCF7, 72 h, MCF-7, 72 h, CellTiter-Glo
Text: (§1) Test drugs: Compounds of the present disclosure. Tumor cell strains: human colon cancer COLO205 cells and human breast cancer MCF-7 cells.
(§2) The growth inhibitory effects on human tumor cells COLO205 and MCF-7 cultured in vitro were observed by using a CellTiter-Glo Luminescent Cell Viability Assay Kit (Promega, Cat. No. G7572). Human tumor cells COLO205 and MCF-7 were both purchased from the American Type Culture Collection.
(§3) CellTiter-Glo Luminescent Cell Viability Assay: The previous cell culture medium was discarded, and the tumor cells were rinsed twice with PBS. An appropriate amount of trypsin (VWR, Cat. No. 0458-25G) was added to digest the tumor cells until most of the cells turned round and were detached from the wall. The trypsin digestion was terminated by adding an RPMI-1640 medium (COLO205; Gibco, Cat. No. A10491-01) containing 10% fetal bovine serum (Hyclone, Cat. No. SV30160.03) and MEM medium (MCF-7; Gibco, Cat. No. 10370-021) containing 10% fetal bovine serum and 0.01 mg/mL insulin, and the cells were gently pipetted with a pipette to completely suspend the tumor cells. After cell counting, a tumor cell suspension was prepared using a complete culture medium and the final concentration was 6.7×10^4 cells/mL. 90 μL of the tumor cell suspension was seeded in each well of a 96-well culture plate (6000 cells/well). The plate was then placed in an incubator with 5% CO2 at 37° C. and incubated for 24 h. A test drug was added by using an Agilent Bravo Automated Liquid Handling Platform, and 10 μL of the sample was added in each well. The assay was conducted in triplicate for each group. A compound of the present disclosure was dissolved in DMSO (BioRoYee, Cat. No. AF0231), and then the resulting solution was diluted to 10 μM/L, 3.33 μM/L, 1.11 μM/L, 0.37 μM/L, 0.123 μM/L, 0.041 μM/L, 0.0137 μM/L, 0.0046 μM/L, and 0.0015 μM/L with the culture medium. The concentration of DMSO was lower than 0.1%, and a culture medium containing 0.1% DMSO was added to the well which was set as a vehicle control group. The 96-well plate was placed in an incubator with 5% CO2 at 37° C. and incubated for 72 h. The 96-well plate to be tested was equilibrated at room temperature for 30 min, and 100 μL of Cell Titer-Glo reagent was added to each well. The contents of each well were mixed in an orbital shaker for 2 min to induce cell lysis, and the plate was incubated at room temperature for 10 min to achieve a constant value of fluorescent intensity. Finally, the chemiluminescence intensity was detected by TECAN M1000. Data were processed with Graphpad Prism 6.0 software. The growth curve of the cells was plotted. The cell growth inhibition rate of a drug was calculated, and the half maximal inhibitory concentration (IC50) of the drug was determined.

[3] = target: T1, CDK6/CyclinD3 (Homo sapiens, UniProt Q00534); assay: In-vitro kinase inhibitory activity, CDK6/CyclinD3 (Caliper EZ Reader II mobility shift); assay type: biochemical; details: CDK6/CyclinD3 20 nM, ATP 2 mM, Peptide 1 μM, 27° C., 120 min; read-out: IC50 (half maximal inhibitory concentration, nM) CDK6
T1 construct: purchased Wuxi Biortus Biosciences Co. Ltd
T1 sequence (Q00534 whole entry, species assumed): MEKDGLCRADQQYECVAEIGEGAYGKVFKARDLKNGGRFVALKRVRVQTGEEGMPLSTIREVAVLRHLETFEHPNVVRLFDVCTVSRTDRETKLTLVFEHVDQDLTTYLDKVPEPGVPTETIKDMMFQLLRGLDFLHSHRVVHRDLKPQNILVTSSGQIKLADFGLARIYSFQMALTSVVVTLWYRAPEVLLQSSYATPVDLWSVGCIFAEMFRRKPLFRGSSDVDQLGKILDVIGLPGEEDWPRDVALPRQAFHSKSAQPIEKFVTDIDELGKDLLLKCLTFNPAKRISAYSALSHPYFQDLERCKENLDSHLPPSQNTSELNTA
T1 sequence (P30281 whole entry partner, species assumed): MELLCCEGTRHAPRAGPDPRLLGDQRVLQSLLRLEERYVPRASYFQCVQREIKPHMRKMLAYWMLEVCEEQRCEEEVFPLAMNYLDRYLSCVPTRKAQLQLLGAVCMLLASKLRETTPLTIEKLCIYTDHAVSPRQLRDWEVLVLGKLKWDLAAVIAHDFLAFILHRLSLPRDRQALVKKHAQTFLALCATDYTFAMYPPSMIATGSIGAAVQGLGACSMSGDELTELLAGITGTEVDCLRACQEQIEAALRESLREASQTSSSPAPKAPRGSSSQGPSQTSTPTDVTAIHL
Experimental: The final volume for assay was 16 μL, and the reaction temperature was 27° C. […] The compound was dissolved in dimethyl sulfoxide (DMSO) to reach a concentration of 10 mM. […] 2 μL of the test compound solution was mixed with 5 μL of the kinase solution, and the mixture was incubated for 10 min. 5 μL of the mixed solution of the polypeptide substrate and ATP was then added. The mixture was incubated at 27° C. for 120 min, and then the reaction was terminated by adding 4 μL of EDTA with a concentration of 120 mM to each sample. […] Each assay was conducted in at least two replicates.
(§4) The final concentrations of the reagents in the assay were as follows. […] The reaction mixture was analyzed on a Caliper EZ Reader II by electrophoretic separation of the fluorescent substrate and the phosphorylated product. Data were calculated by using GraphPad Prism version 6.0 and IC50 values were obtained by adjusting the non-linear regression models of the dose response curves.

[4] = target: T2, CDK4/CyclinD3 (Homo sapiens, UniProt P11802); assay: In-vitro kinase inhibitory activity, CDK4/CyclinD3 (Caliper EZ Reader II mobility shift); assay type: biochemical; details: CDK4/CyclinD3 20 nM, ATP 2 mM, Peptide 1 μM, 27° C., 180 min; read-out: IC50 (half maximal inhibitory concentration, nM) CDK4
T2 construct: purchased Wuxi Biortus Biosciences Co. Ltd
T2 sequence (P11802 whole entry, species assumed): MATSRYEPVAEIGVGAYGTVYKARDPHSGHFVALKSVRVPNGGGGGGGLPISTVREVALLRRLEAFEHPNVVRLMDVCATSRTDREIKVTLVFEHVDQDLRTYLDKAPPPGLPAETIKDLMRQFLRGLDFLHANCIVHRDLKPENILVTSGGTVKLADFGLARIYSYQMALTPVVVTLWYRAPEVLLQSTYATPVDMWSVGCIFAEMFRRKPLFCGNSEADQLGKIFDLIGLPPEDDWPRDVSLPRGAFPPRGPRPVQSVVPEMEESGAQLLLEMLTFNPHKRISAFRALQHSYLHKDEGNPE
T2 sequence (P30281 whole entry partner, species assumed): as the sequence (P30281 whole entry partner, species assumed) above
Experimental: The final volume for assay was 16 μL, and the reaction temperature was 27° C. CDK4/CyclinD3 was produced by Wuxi Biortus Biosciences Co. Ltd. The concentration of the kinase was determined by the results of the optimization experiment. The kinase was diluted with an assay buffer (50 mM Tris HCl pH 8.0, 0.01% Tween 20, 50 μg/mL BSA, and 5 mM MgCl2) to obtain a corresponding kinase solution (2.4× concentration). The compound was dissolved in dimethyl sulfoxide (DMSO) to reach a concentration of 10 mM. […] 2 μL of the test compound solution was mixed with 5 μL of the kinase solution, and the mixture was incubated for 10 min. 5 μL of the mixed solution of the polypeptide substrate and ATP was then added. The mixture was incubated at 27° C. for 180 min, and then the reaction was terminated by adding 4 μL of EDTA with a concentration of 120 mM to each sample. […] Each assay was conducted in at least two replicates.
as §4

[5] = tested on: human colon cancer COLO205 cells; assay: Growth inhibition of tumor cells cultured in vitro, CellTiter-Glo, COLO205; assay type: cell-based; details: Homo sapiens, COLO 205, 72 h, COLO205, 72 h, CellTiter-Glo
Text: as §1, §2, §3

Chain of CDK9 (P50750 whole entry, species assumed): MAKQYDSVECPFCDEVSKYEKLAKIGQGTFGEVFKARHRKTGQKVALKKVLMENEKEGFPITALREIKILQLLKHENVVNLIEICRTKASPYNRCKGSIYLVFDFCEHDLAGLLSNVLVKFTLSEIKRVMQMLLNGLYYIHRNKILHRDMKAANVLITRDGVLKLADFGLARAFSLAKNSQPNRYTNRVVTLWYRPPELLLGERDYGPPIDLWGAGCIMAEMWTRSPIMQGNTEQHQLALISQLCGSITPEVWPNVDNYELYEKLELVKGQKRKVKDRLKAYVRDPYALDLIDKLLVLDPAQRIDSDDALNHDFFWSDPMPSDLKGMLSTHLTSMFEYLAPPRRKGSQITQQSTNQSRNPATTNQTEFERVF
Chain of CDK9 (O60563 whole entry partner, species assumed): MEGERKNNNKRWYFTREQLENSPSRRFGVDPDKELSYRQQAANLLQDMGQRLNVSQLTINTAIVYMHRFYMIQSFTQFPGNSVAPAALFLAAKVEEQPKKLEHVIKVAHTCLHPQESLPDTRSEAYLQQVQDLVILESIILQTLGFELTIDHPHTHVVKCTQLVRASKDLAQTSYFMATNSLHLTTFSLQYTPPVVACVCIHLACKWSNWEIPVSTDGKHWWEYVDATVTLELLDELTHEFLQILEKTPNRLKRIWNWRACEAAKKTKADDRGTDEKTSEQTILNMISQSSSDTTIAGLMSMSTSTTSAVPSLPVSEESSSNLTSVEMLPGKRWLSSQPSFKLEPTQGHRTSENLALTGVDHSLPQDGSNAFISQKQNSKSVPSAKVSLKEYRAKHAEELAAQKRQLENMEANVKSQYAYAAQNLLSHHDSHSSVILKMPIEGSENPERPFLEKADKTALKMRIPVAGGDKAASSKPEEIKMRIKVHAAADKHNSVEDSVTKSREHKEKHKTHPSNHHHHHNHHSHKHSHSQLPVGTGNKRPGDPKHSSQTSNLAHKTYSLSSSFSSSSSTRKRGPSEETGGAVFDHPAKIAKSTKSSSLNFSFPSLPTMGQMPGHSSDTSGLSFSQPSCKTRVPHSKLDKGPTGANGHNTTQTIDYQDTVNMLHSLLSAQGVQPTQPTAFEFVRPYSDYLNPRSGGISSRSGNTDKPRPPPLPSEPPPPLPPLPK

Structure (SMILES): CN(C)C(=O)c1cc2cnc(Nc3ccc(N4CCN(CCN5CCC(CN6CCN(c7ccc8c(c7)CN([C@H]7CCC(=O)NC7=O)C8=O)CC6)CC5)CC4)cn3)nc2n1C1CCCC1 [Compound 29, (S)-7-cyclopentyl-2-((5-(4-(2-(4-((4-(2-(2,6-dioxopiperidin-3-yl)-1-oxoisoindolin-5-yl)piperazin-1-yl)methyl)piperidin-1-yl)ethyl)piperazin-1-yl)pyridin-2-yl)amino)-N,N-dimethyl-7H-pyrrolo[2,3-d]pyrimidin-6-amide trihydrochloride]
- IC50 [1]: 3650 nM
- IC50 [2]: 106 nM
- IC50 [3]: 42.1 nM
- IC50 [4]: 37.8 nM

Structure (SMILES): CC(=O)c1c(C)c2cnc(Nc3ccc(N4CCN(CCN5CCC(CC6CCN(c7ccc8c(c7Cl)CN(C7CCC(=O)NC7=O)C8=O)CC6)CC5)CC4)cn3)nc2n(C2CCCC2)c1=O (stereo not shown) [Compound 39, 3-(5-(4-((1-(2-(4-(6-((6-acetyl-8-cyclopentyl-5-methyl-7-oxo-7,8-dihydropyrido[2,3-d]pyrimidin-2-yl)amino)pyridin-3-yl)piperazin-1-yl)ethyl)piperidin-4-yl)methyl)piperidin-1-yl)-4-chloro-1-oxoisoindolin-2-yl)piperidine-2,6-dione dihydrochloride]
- IC50 [5]: 440 nM
- IC50 [1]: 5760 nM
- IC50 [3]: 11.3 nM
- IC50 [4]: 56.1 nM

Structure (SMILES): CC(=O)c1c(C)c2cnc(Nc3ccc(N4CCN(CCN5CCC(CC6CCN(c7ccc8c(c7)CN([C@H]7CCC(=O)NC7=O)C8=O)CC6)CC5)CC4)cn3)nc2n(C2CCCC2)c1=O [Compound 38, (S)-3-(5-(4-((1-(2-(4-(6-((6-acetyl-8-cyclopentyl-5-methyl-7-oxo-7,8-dihydropyrido[2,3-d]pyrimidin-2-yl)amino)pyridin-3-yl)piperazin-1-yl)ethyl)piperidin-4-yl)methyl)piperidin-1-yl)-1-oxoisoindolin-2-yl)piperidine-2,6-dione dihydrochloride]
- IC50 [5]: 76.2 nM
- IC50 [1]: 1400 nM
- IC50 [3]: 6.73 nM
- IC50 [4]: 8.88 nM

Structure (SMILES): CC(=O)c1c(C)c2cnc(Nc3ccc(N4CCN(CCN5CCN(c6ccc7c(c6Cl)CN(C6CCC(=O)NC6=O)C7=O)CC5)CC4)cn3)nc2n(C2CCCC2)c1=O (stereo not shown) [Compound 21, 3-(5-(4-(2-(4-(6-((6-acetyl-8-cyclopentyl-5-methyl-7-oxo-7,8-dihydropyrido[2,3-d]pyrimidin-2-yl)amino)pyridin-3-yl)piperazin-1-yl)ethyl)piperazin-1-yl)-4-chloro-1-oxoisoindolin-2-yl)piperidine-2,6-dione dihydrochloride]
- IC50 [1]: 3950 nM
- IC50 [3]: 37.1 nM
- IC50 [4]: 53.2 nM

Structure (SMILES): CC(=O)c1c(C)c2cnc(Nc3ccc(N4CCN(CCN5CCC(CC6CCN(c7ccc8c(c7Cl)CN([C@H]7CCC(=O)NC7=O)C8=O)CC6)CC5)CC4)cn3)nc2n(C2CCCC2)c1=O [Compound 40, (S)-3-(5-(4-((1-(2-(4-(6-((6-acetyl-8-cyclopentyl-5-methyl-7-oxo-7,8-dihydropyrido[2,3-d]pyrimidin-2-yl)amino)pyridin-3-yl)piperazin-1-yl)ethyl)piperidin-4-yl)methyl)piperidin-1-yl)-4-chloro-1-oxoisoindolin-2-yl)piperidine-2,6-dione dihydrochloride]
- IC50 [5]: 50.9 nM
- IC50 [1]: 6810 nM
- IC50 [3]: 23.3 nM
- IC50 [4]: 55 nM

Structure (SMILES): CC(=O)c1c(C)c2cnc(Nc3ccc(N4CCC(CCN5CCC(CC6CCN(c7ccc8c(c7)CN(C7CCC(=O)NC7=O)C8=O)CC6)CC5)CC4)cn3)nc2n(C2CCCC2)c1=O (stereo not shown) [Compound 42, 3-(5-(4-((1-(2-(1-(6-((6-acetyl-8-cyclopentyl-5-methyl-7-oxo-7,8-dihydropyrido[2,3-d]pyrimidin-2-yl)amino)pyridin-3-yl)piperidin-4-yl)ethyl)piperidin-4-yl)methyl)piperidin-1-yl)-1-oxoisoindolin-2-yl)piperidine-2,6-dione hydrochloride]
- IC50 [5]: 194 nM
- IC50 [1]: > 10000 nM
- IC50 [3]: 19.2 nM
- IC50 [4]: 33.3 nM

Structure (SMILES): CC(=O)c1c(C)c2cnc(Nc3ccc(N4CCN(CCC5CCN(c6ccc7c(c6)CN(C6CCC(=O)NC6=O)C7=O)CC5)CC4)cn3)nc2n(C2CCCC2)c1=O (stereo not shown) [Compound 13, 3-(5-(4-(2-(4-(6-((6-acetyl-8-cyclopentyl-5-methyl-7-oxo-7,8-dihydropyrido[2,3-d]pyrimidin-2-yl)amino)pyridin-3-yl)piperazin-1-yl)ethyl)piperidin-1-yl)-1-oxoisoindolin-2-yl)piperidine-2,6-dione]
- IC50 [5]: 59.4 nM
- IC50 [1]: > 10000 nM
- IC50 [3]: 26.6 nM
- IC50 [4]: 71.1 nM

Structure (SMILES): CN(C)C(=O)c1cc2cnc(Nc3ccc(N4CCN(CCN5CCC(CN6CCN(c7ccc8c(c7)CN(C7CCC(=O)NC7=O)C8=O)CC6)CC5)CC4)cn3)nc2n1C1CCCC1 (stereo not shown) [Compound 26, 7-cyclopentyl-2-((5-(4-(2-(4-((4-(2-(2,6-dioxopiperidin-3-yl)-1-oxoisoindolin-5-yl)piperazin-1-yl)methyl)piperidin-1-yl)ethyl)piperazin-1-yl)pyridin-2-yl)amino)-N,N-dimethyl-7H-pyrrolo[2,3-d]pyrimidin-6-amide trihydrochloride]
- IC50 [1]: 4000 nM
- IC50 [3]: 55.2 nM
- IC50 [4]: 38.4 nM

Structure (SMILES): CC(=O)c1c(C)c2cnc(Nc3ccc(N4CCN(CCN5CCC(CN6CCN(c7ccc8c(c7Cl)CN(C7CCC(=O)NC7=O)C8=O)CC6)CC5)CC4)cn3)nc2n(C2CCCC2)c1=O (stereo not shown) [Compound 36, 3-(5-(4-((1-(2-(4-(6-((6-acetyl-8-cyclopentyl-5-methyl-7-oxo-7,8-dihydropyrido[2,3-d]pyrimidin-2-yl)amino)pyridin-3-yl)piperazin-1-yl)ethyl)piperidin-4-yl)methyl)piperazin-1-yl)-4-chloro-1-oxoisoindolin-2-yl)piperidine-2,6-dione trihydrochloride]
- IC50 [5]: 95.9 nM
- IC50 [1]: 1480 nM
- IC50 [3]: 4.44 nM
- IC50 [4]: 12.7 nM

Structure (SMILES): COc1cc(N2CCN(CCN3CCN(c4ccc(Nc5ncc6c(C)c(C(C)=O)c(=O)n(C7CCCC7)c6n5)nc4)CC3)CC2)cc2c1C(=O)N(C1CCC(=O)NC1=O)C2 (stereo not shown) [Compound 17, 3-(5-(4-(2-(4-(6-((6-acetyl-8-cyclopentyl-5-methyl-7-oxo-7,8-dihydropyrido[2,3-d]pyrimidin-2-yl)amino)pyridin-3-yl)piperazin-1-yl)ethyl)piperazin-1-yl)-7-methoxy-1-oxoisoindolin-2-yl)piperidine-2,6-dione dihydrochloride]
- IC50 [1]: > 10000 nM
- IC50 [3]: 29.6 nM
- IC50 [4]: 67.1 nM

From patent US11485735B2, “Selective CDK4/6 inhibitor and preparation thereof” (Wuxi Shuangliang Biotechnology Co., Ltd., priority 2019, dated 2022)
